Entries after “also recorded” stand apart in the source; their conditions may differ. Like-named read-outs stand apart in the source and are kept apart here. Each block holds one molecule with its values, some of them ahead of it.
Assays:
PMNs = experiment: cytotoxicity on the PMNs; conditions: higher concentrations of the drug
[1] = test system: IL-8-stimulated neutrophil chemotaxis; experiment: In vitro neutrophil chemotaxis, IL-8, transwell chamber assay; format: cell-based, human; conditions: for inhibition at 0.01 µM: read-out: inhibition of chemotaxis at 0.01 μM, 0.01 μM inhibitor alone; for IC50: 3.125 nM IL-8, 3 hours
Experimental: Subsequently, the cells were stimulated with 3.125 nM of IL-8 for a period of 3 hours at which time the migrated cells were quantified using a cell sorter as described elsewhere. Percent inhibition was calculated based on the differences in the number of migrated cells compared to IL-8 alone controls.
The migrated cells were quantitated as described, and the percent inhibition was represented.
Number of cells migrated was measured 3 hours after IL-8 stimulation and expressed as percent control. Each value represents the average ±S.E. obtained from at least three different donors with duplicates in each set.
(§1) Polymorphonuclear leukocytes (PMNs) were isolated from whole blood obtained from healthy human donors. Plasma was separated from the remainder of the blood using a Dextran density gradient. Red blood cells (RBCs) and PMNs were further isolated by centrifugation at 2500 rpm for 15 minutes, using a Lymphoprep sedimentation solution. RBCs were lysed with 0.2% NaCl, neutralized with 1.8% NaCl, and the remaining neutrophils were resuspended in RPMI binding buffer at a final concentration of 10 million cells/mL.
The neutrophil chemotaxis assay was conducted with 1 million cells per well in […] polycarbonate membrane transwell plates (Corning-Costar, Cambridge, Mass.). The various inhibitors were prepared as 1 or 10 mM stock solutions in dimethyl sulphoxide (DMSO). Inhibitor dilutions were prepared in RPMI binding buffer, maintaining a constant final concentration of DMSO in all conditions. Neutrophils were preincubated with the respective inhibitor in the top well of the plate for 30 minutes at room temperature prior to exposure to IL-8. An equivalent concentration of the respective inhibitor was placed in the bottom well to prevent any concentration gradient. DMSO concentration was maintained in all wells as a vehicle control. […] Neutrophils that migrated completely across the 3-μM filter were quantitated using FACS analysis with appropriate forward and sideward scatter. Percentage inhibition relative to the positive control (IL-8 alone) was calculated for each condition after subtracting the blank reading (no IL-8).

colon cancer cells = conditions: read-out: IC50, decrease of endogenous constitutive MAPK activation or growth in soft agar; cited from earlier work
IL-8 activation of ERK = IL-8 activation of ERK in human PMNs, Western blot with phospho-specific ERK antibody; format: cell-based; conditions: for inhibition of IL-8 activation of ERK at 0.1 μM: 0.1 μM inhibitor
Experimental: Activation of MAPK was examined by phospho-specific ERK antibody in isolated human PMNs that were stimulated with 3 nM of IL-8 for various periods of time (A). […] The effect of the inhibitors was monitored by measuring p-ERK activity by Western blotting. The blots were normalized using the ERK antibody.
as §1
Neutrophils were preincubated with the respective inhibitor for 30 minutes at room temperature in 1.5-mL microfuge tubes prior to addition of IL-8 (3.125 nM). […] Thus, neutrophils were exposed to IL-8 for 5 minutes at room temperature, after which whole cell lysates were obtained via lysis with RIPA buffer and analyzed by Western blot analysis using phospho specific antibodies, p44/42 MAP (ERK) and p38 MAPK kinase. Standard Western blotting was performed using chemiluminescence. All blots were normalized with the respective nonphosphorylated antibodies.
To confirm IL-8 activation of ERK, neutrophils were stimulated with 3 nM of IL-8 for various periods of time, ranging from 0 to 30 minutes (FIG. 1A).
(§2) The role of PI3K in IL-8 activation of ERK has been controversial. […] In parallel, kinase assays were performed to examine the MEK1/2 activity in response to IL-8.

[2] = test system: IL-8-induced neutrophil recruitment to the skin; experiment: IL-8 skin recruitment model (in vivo rabbit neutrophil recruitment assay)
Experimental: Three hours after the last dose, animals were injected with ^125I IL-8 (10μCi), and 10 minutes later various doses of cold (unlabeled) IL-8 was injected intradermally at local sites on the back of the rabbits. Sixty minutes later, the animals were sacrificed, punch biopsies were performed, and the radiation in the skin was measured using a gamma counter. Each value represents the average±standard deviation error of three representative experiments with three animals in each group and triplicates within each treatment. The asterisk indicates significant (p<0.05) differences between the respective treatments in control animals versus drug-administered animals. […]
In control rabbits, the vehicle was administered. […] The biopsies were weighed and sample-associated radioactivity was determined using a gamma counter (Packard Model #05005, Downers Grove, Ill.).
In each experiment, triplicate samples were obtained for each experimental condition. In studies where IL-8 was not tested or the highest 1-μg dose of IL-8 was not used, the data is expressed as either raw counts or adjusted counts. […] In dose-response studies where the 1-μg dose of IL-8 was used, the weight-normalization background (vehicle-treated skin) was subtracted from weight-normalized treated samples, and the data was then expressed as a percent maximal response to the 1-μg dose of IL-8. […]

[3] = in vivo; cited from earlier work
MEK1/2 = experiment: kinase assays of MEK1/2 activity in response to IL-8; format: cell-based, human; conditions: pre-treatment with inhibitor
Experimental: as §2

IL-8-induced chemotaxis = conditions: cited from earlier work
oral bioavailability = conditions: in vivo

Compound: COC[C@H]1OC(=O)c2coc3c2[C@@]1(C)C1=C(C3=O)[C@@H]2CCC(=O)[C@@]2(C)C[C@H]1OC(C)=O [Wortmannin, reference compound]
- cytotoxicity effects on the PMNs (PMNs): No visible cytotoxicity effects
- inhibition of chemotaxis at 0.01 μM ([1]; 0.01 μM inhibitor alone, 0.01 µM): 28%
- inhibition at 0.001 µM ([1]; Homo sapiens, Neutrophil, read-out: inhibition of chemotaxis at 0.001 μM, 0.001 μM inhibitor, 3.125 nM IL-8): 25 to 30%
- inhibition at 0.01 µM ([1]; Homo sapiens, Neutrophil): ~30%
- inhibition at 1 µM ([1]; Homo sapiens, Neutrophil, read-out: inhibition of chemotaxis at 1 μM, 1 μM inhibitor, 3.125 nM IL-8): 100%
- IC50 ([1]; Homo sapiens, Neutrophil): 20 nM

- IC50 ([1]; Homo sapiens, Neutrophil): 140 nM
- inhibition of IL-8 activation of MEK1/2 (MEK1/2): inhibited
Compound: O=C(NOCC1CC1)c1ccc(F)c(F)c1Nc1ccc(I)cc1Cl [2-(2-chloro-4-iodo-phenylamino)-N-cyclopropylmethoxy-3,4-difluoro-benzamide]
- IC50 (colon cancer cells): 150 nM
- inhibition of chemotaxis at 0.001 μM ([1]; 0.001 μM inhibitor, 3.125 nM IL-8): minimal inhibition
- inhibition at 0.1 µM ([1]; Homo sapiens, Neutrophil, read-out: inhibition of chemotaxis at 0.1 nM IL-8, 0.1 μM inhibitor, 0.1 nM IL-8): ~80%
- inhibition at 0.01 µM ([1]; Homo sapiens, Neutrophil): ~50%
- inhibition at 0.1 µM ([1]; Homo sapiens, Neutrophil, read-out: inhibition of chemotaxis at 100 nM IL-8, 0.1 μM inhibitor, 100 nM IL-8): ~30%
- maximal inhibition of IL-8-induced chemotaxis, compound alone ([1]; maximal block, single agent): 60%
- effect on IL-8-induced ERK activation at 0.01 μM (IL-8 activation of ERK; 0.01 μM inhibitor): blocks ERK activation completely
- inhibition of IL-8 activation of ERK at 0.1 μM (IL-8 activation of ERK): almost completely blocks; also recorded: completely inhibited
- inhibition of IL-8 activation of ERK at 0.1 μM (IL-8 activation of ERK; listed as 2-(2-Chloro-4-iodo-phenylamino)-N-cyclopropylmethoxy-3,4-difluoro-benzamide): almost completely blocked
- inhibition of IL-8 activation of ERK (IL-8 activation of ERK; inhibitor 0 to 100 μM for 30 minutes, then IL-8 for 5 minutes): dose dependent inhibition; also recorded: clearly blocked
- decrease of IL-8-induced neutrophil recruitment in vivo ([2]; 30 mg/kg PO three times at 8 hour intervals, higher IL-8 concentrations tested): ~50%
- number of neutrophils recruited to the skin ([2]; 30 mg/kg PO three times, all IL-8 concentrations tested): consistently decreased
- bioavailability, as recently described [3]: bioavailable

- oral bioavailability (oral bioavailability): orally nonbioavailable
Compound: COc1cccc(-c2cc(=O)c3ccccc3o2)c1N [2-(2-amino-3-methoxy-phenyl)-chromen-4-one]
- inhibition of IL-8-induced chemotaxis in previous studies (IL-8-induced chemotaxis): lack of inhibition
